# In patent US8613927B2, “High affinity human antibodies to human nerve growth factor” (Regeneron Pharmaceuticals, Inc., priority 2007, dated 2013):
# Experiments:
# C57BL/6 male mice = experiment: Complete Freund's Adjuvant (CFA) test of inflammatory pain, Hargreaves' test; format: in vivo, mouse
# Description: Complete Freund's Adjuvant (CFA) test of inflammatory pain. To determine if anti-NGF antibodies could relieve pain in a chronic peripheral inflammatory mouse model, complete Freund's adjuvant (CFA) was injected subcutaneously (s.c.) into the hind paw of C57BL/6 male mice, causing thermal hyperalgesia, which was measured using the Hargreaves' test (Torres et al. (2007) Pain 130:267-278). Control mice received the vehicle (i.e., PBS) only. After acclimating the mice to the Hargreaves' apparatus (model 336, IITC Life Science) for 2-3 hours per day for 3 days, they were tested in the apparatus with an active intensity setting of 17%. A cut-off time of 25 sec was used to avoid tissue damage. For each mouse, 3 readings were obtained during a period of 30 min per day and the median latency was used for analysis. […] The Hargreaves' test was repeated daily for up to 4 days after CFA injection and % decrease from the baseline in paw withdrawal latency calculated (Tables 12 and 13, mean % change±SEM). […] There was no statistical difference between the tested antibodies and the control antibody. Table 12: n=7 for each group; all groups 10 mg/kg.
# [1] = target: Human NGF binding to human TrkA-hFc (Homo sapiens, UniProt P01138, DEL136-138/DEL208-209); experiment: BIACORE receptor blocking assay, free NGF bound to TrkA-hFc; details: percentage free NGF bound; NGF 10-25 nM with molar excess of antibody; NGF alone = 100%
# From the text: To identify blocking antibodies, a receptor blocking assay was designed using a BIACORE™ 3000 instrument. Recombinant human TrkA-hFc and human p75-hFc proteins were amine-coupled to a CM5 chip to a density of about 5000-6000 RU.
# Sequence of Human NGF binding to human TrkA-hFc (P01138 with tags, fused parts or gaps DEL136-138/DEL208-209): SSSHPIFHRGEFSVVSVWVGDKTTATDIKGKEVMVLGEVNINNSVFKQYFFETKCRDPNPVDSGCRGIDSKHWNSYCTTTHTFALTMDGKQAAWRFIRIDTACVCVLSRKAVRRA
substance,measurement,setting,value
tanezumab [RN624],% decrease from the baseline in paw withdrawal latency,"C57BL/6 male mice; Table 12, 10 mg/kg s.c. 1 hr before CFA, Baseline, mean±SEM",0.0 ± 0.0%
same,% decrease from the baseline in paw withdrawal latency,"C57BL/6 male mice; Table 12, 10 mg/kg s.c., Day 1 after CFA",−58.3 ± 5.5%
same,% decrease from the baseline in paw withdrawal latency,"C57BL/6 male mice; Table 12, 10 mg/kg s.c., Day 2 after CFA",−30.9 ± 5.2%
same,% decrease from the baseline in paw withdrawal latency,"C57BL/6 male mice; Table 12, 10 mg/kg s.c., Day 3 after CFA",−20.7 ± 6.3%
same,% decrease from the baseline in paw withdrawal latency,"C57BL/6 male mice; Table 13, 10 mg/kg s.c., Baseline",0.0 ± 0.0%
same,% decrease from the baseline in paw withdrawal latency,"C57BL/6 male mice; Table 13, 10 mg/kg s.c., Day 1 after CFA",−61.7 ± 9.7%
same,% decrease from the baseline in paw withdrawal latency,"C57BL/6 male mice; Table 13, 10 mg/kg s.c., Day 2 after CFA",−33.1 ± 17.9%
same,% decrease from the baseline in paw withdrawal latency,"C57BL/6 male mice; Table 13, 10 mg/kg s.c., Day 3 after CFA",−9.6 ± 15.4%
same,% decrease from the baseline in paw withdrawal latency,"C57BL/6 male mice; Table 13, 10 mg/kg s.c., Day 4 after CFA",−0.4 ± 18.5%
same,% Binding TrkA-hFc,[1],10%
